Assay results from ChEMBL document CHEMBL1201862, “PubChem BioAssay data set” (2004).
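Growth conditions: 96-well plates. Treatment: test compound, 48 hours, 5 concentrations. Analysis: linear interpolation between bracketing concentrations; unreached endpoints set to highest concentration. Here, GI50 denotes the concentration required for 50% inhibition of growth.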 Activity calls are given as the source filed them. No stated cut-off is given here; in the data, active = GI50 up to about 1.1 µM and inactive = higher.

Assays:
Test in all cases: NCI tumour cell line growth inhibition, 48 h
DMS-273 = system: DMS-273
SW-620 = system: SW-620
UO-31 = system: UO-31
ACHN = system: ACHN
RPMI-8226 = system: RPMI-8226
RXF 393 = system: RXF 393
786-0 = system: 786-0
HOP-92 = system: HOP-92
TK-10 = system: TK-10
HOP-18 = system: HOP-18
K562 = system: K562
SF-539 = system: SF-539
LOX IMVI = system: LOX IMVI
KM-20L2 = system: KM-20L2
HCT-15 = system: HCT-15
SNB-75 = system: SNB-75
OVCAR-4 = system: OVCAR-4
SK-MEL-5 = system: SK-MEL-5
DLD-1 = system: DLD-1
U-251 = system: U-251
SF-295 = system: SF-295
A549 = system: A549
SK-MEL-2 = system: SK-MEL-2
DMS-114 = system: DMS-114
CCRF-CEM = system: CCRF-CEM
IGROV-1 = system: IGROV-1
UACC-257 = system: UACC-257
HOP-62 = system: HOP-62
OVCAR-5 = system: OVCAR-5
LXFL 529 = system: LXFL 529
HL-60 = system: HL-60
M19-MEL = system: M19-MEL
KM12 = system: KM12
NCI-H460 = system: NCI-H460
Malme-3M = system: Malme-3M
SF-268 = system: SF-268
CAKI-1 = system: CAKI-1
EKVX = system: EKVX
HCC 2998 = system: HCC 2998
NCI-H23 = system: NCI-H23
MOLT-4 = system: MOLT-4
SNB-19 = system: SNB-19
HT-29 = system: HT-29
OVCAR-3 = system: OVCAR-3
OVCAR-8 = system: OVCAR-8
SK-MEL-28 = system: SK-MEL-28
COLO 205 = system: COLO 205
SK-OV-3 = system: SK-OV-3
UACC-62 = system: UACC-62
SN12C = system: SN12C
M14 = system: M14
NCI-H522 = system: NCI-H522
A498 = system: A498
T47D = system: T47D
MDA-N = system: MDA-N
NCI-H226 = system: NCI-H226
BT-549 = system: BT-549
HCT-116 = system: HCT-116
NCI/ADR-RES = system: NCI/ADR-RES
DU-145 = system: DU-145
MDA-MB-231 = system: MDA-MB-231
Hs-578T = system: Hs-578T
SR = system: SR
MDA-MB-435 = system: MDA-MB-435
PC-3 = system: PC-3
MCF7 = system: MCF7

With CN(C)C=C1C(Cl)=C(C=O)CC(C=O)=C1Cl the GI50 (DMS-273) was 11 µM (inactive), the GI50 (SW-620) was 1.56 µM (inactive) and the GI50 (UO-31) was 17.7 µM (inactive). The GI50 (ACHN) was 12.9 µM (inactive), the GI50 (RPMI-8226) was 2.39 µM (inactive) and the GI50 (RXF 393) was 6.21 µM (inactive). For the same compound, the GI50 (786-0) was 11.8 µM (inactive), the GI50 (HOP-92) was 4.2 µM (inactive) and the GI50 (TK-10) was 16.7 µM (inactive). The GI50 (HOP-18) was 13.3 µM (inactive), the GI50 (K562) was 3.03 µM (inactive) and the GI50 (SF-539) was 14.8 µM (inactive). For the same compound, the GI50 (LOX IMVI) was 2.19 µM (inactive), the GI50 (KM-20L2) was 19.5 µM (inactive) and the GI50 (HCT-15) was 3.42 µM. The GI50 (SNB-75) was 15.4 µM (inactive), the GI50 (OVCAR-4) was 14.4 µM (inactive) and the GI50 (SK-MEL-5) was 10.4 µM (inactive). For the same compound, the GI50 (DLD-1) was 5.71 µM (inactive), the GI50 (U-251) was 11.4 µM (inactive) and the GI50 (SF-295) was 18.3 µM (inactive). The GI50 (A549) was 86.9 µM (inactive), the GI50 (SK-MEL-2) was 17.6 µM (inactive) and the GI50 (DMS-114) was 11.2 µM (inactive). The GI50 (CCRF-CEM) was 2.5 µM (inactive), the GI50 (IGROV-1) was 16.1 µM (inactive) and the GI50 (UACC-257) was 14.9 µM (inactive). For the same compound, the GI50 (HOP-62) was 23.7 µM (inactive), the GI50 (OVCAR-5) was 15.9 µM (inactive) and the GI50 (LXFL 529) was 2.03 µM (inactive). The GI50 (HL-60) was 1.77 µM (inactive), the GI50 (M19-MEL) was 11.4 µM (inactive) and the GI50 (KM12) was 6.46 µM (inactive). For the same compound, the GI50 (NCI-H460) was 20.7 µM (inactive), the GI50 (Malme-3M) was 10.4 µM (inactive) and the GI50 (SF-268) was 8.17 µM (inactive). For the same compound, the GI50 (CAKI-1) was 11.3 µM (inactive), the GI50 (EKVX) was 22.4 µM (inactive) and the GI50 (HCC 2998) was 15.2 µM (inactive). For the same compound, the GI50 (NCI-H23) was 14.6 µM (inactive), the GI50 (MOLT-4) was 2.54 µM (inactive) and the GI50 (SNB-19) was 14.3 µM (inactive). The GI50 (HT-29) was 14 µM (inactive), the GI50 (OVCAR-3) was 13.5 µM (inactive) and the GI50 (OVCAR-8) was 3.13 µM (inactive). For the same compound, the GI50 (SK-MEL-28) was 6.59 µM (inactive), the GI50 (COLO 205) was 15.6 µM (inactive) and the GI50 (SK-OV-3) was 29.4 µM (inactive). The GI50 (UACC-62) was 15.1 µM (inactive), the GI50 (SN12C) was > 100 µM (inactive) and the GI50 (M14) was 12.2 µM (inactive). The GI50 (NCI-H522) was 1.86 µM (inactive).
O=[N+]([O-])C(/C(Cl)=C(\Cl)Br)=C(/Cl)SCc1ccccc1 was tested, and the GI50 (SW-620) was 2.03 µM (inactive), the GI50 (UO-31) was 2.52 µM (inactive) and the GI50 (ACHN) was 2.97 µM (inactive). The GI50 (A498) was 8.04 µM (inactive), the GI50 (T47D) was 3.68 µM (inactive) and the GI50 (RPMI-8226) was 1.72 µM (inactive). For the same compound, the GI50 (RXF 393) was 2.35 µM (inactive), the GI50 (786-0) was 2.08 µM (inactive) and the GI50 (HOP-92) was 2.31 µM (inactive). For the same compound, the GI50 (TK-10) was 4.5 µM (inactive), the GI50 (MDA-N) was 1.85 µM (inactive) and the GI50 (K562) was 1.27 µM (inactive). For the same compound, the GI50 (SF-539) was 8.83 µM (inactive), the GI50 (LOX IMVI) was 1.86 µM (inactive) and the GI50 (HCT-15) was 2.9 µM. For the same compound, the GI50 (SNB-75) was 3.26 µM (inactive), the GI50 (OVCAR-4) was 3.87 µM (inactive) and the GI50 (SK-MEL-5) was 2.9 µM (inactive). For the same compound, the GI50 (U-251) was 6.46 µM (inactive), the GI50 (SF-295) was 16.9 µM (inactive) and the GI50 (NCI-H226) was 14.4 µM (inactive). For the same compound, the GI50 (A549) was 16.3 µM (inactive), the GI50 (SK-MEL-2) was 3.8 µM (inactive) and the GI50 (BT-549) was 2.56 µM (inactive). The GI50 (CCRF-CEM) was 0.507 µM (active), the GI50 (IGROV-1) was 5.9 µM (inactive) and the GI50 (UACC-257) was 6.21 µM (inactive). For the same compound, the GI50 (HCT-116) was 2.48 µM (inactive), the GI50 (HOP-62) was 15.1 µM (inactive) and the GI50 (OVCAR-5) was 12.5 µM (inactive). The GI50 (HL-60) was 0.336 µM (active), the GI50 (NCI/ADR-RES) was 2.77 µM (inactive) and the GI50 (KM12) was 14.4 µM (inactive). The GI50 (NCI-H460) was 12.8 µM (inactive), the GI50 (DU-145) was 13 µM (inactive) and the GI50 (Malme-3M) was 6.31 µM (inactive). The GI50 (MDA-MB-231) was 2.94 µM (inactive), the GI50 (SF-268) was 2.85 µM (inactive) and the GI50 (Hs-578T) was 5.11 µM (inactive). The GI50 (CAKI-1) was 1.8 µM (inactive), the GI50 (EKVX) was 6.67 µM (inactive) and the GI50 (HCC 2998) was 11.2 µM (inactive). The GI50 (NCI-H23) was 5.71 µM (inactive), the GI50 (MOLT-4) was 0.778 µM (active) and the GI50 (SNB-19) was 17.8 µM (inactive). The GI50 (HT-29) was 2.12 µM (inactive), the GI50 (OVCAR-3) was 2.74 µM (inactive) and the GI50 (OVCAR-8) was 2.26 µM (inactive). The GI50 (SR) was 1.44 µM (inactive), the GI50 (SK-MEL-28) was 2.31 µM (inactive) and the GI50 (COLO 205) was 1.98 µM (inactive). The GI50 (MDA-MB-435) was 1.87 µM (inactive), the GI50 (SK-OV-3) was 19.6 µM (inactive) and the GI50 (UACC-62) was 3.2 µM (inactive). The GI50 (PC-3) was 3.84 µM (inactive), the GI50 (MCF7) was 2.95 µM (inactive) and the GI50 (SN12C) was 3.31 µM (inactive). For the same compound, the GI50 (M14) was 2.77 µM (inactive) and the GI50 (NCI-H522) was 1.89 µM (inactive).
